These results are taken from patent publication US4387238A, “Epoxysuccinamic acid compounds” (Taisho Pharmaceutical Co., Ltd., priority 1978, dated 1983).

Each structure is given as a SMILES string.

The target in this assay is T1, papain (Carica papaya, UniProt P00784).
T1 construct: purchased Sigma Chem. Co
T1 sequence (P00784 134-345): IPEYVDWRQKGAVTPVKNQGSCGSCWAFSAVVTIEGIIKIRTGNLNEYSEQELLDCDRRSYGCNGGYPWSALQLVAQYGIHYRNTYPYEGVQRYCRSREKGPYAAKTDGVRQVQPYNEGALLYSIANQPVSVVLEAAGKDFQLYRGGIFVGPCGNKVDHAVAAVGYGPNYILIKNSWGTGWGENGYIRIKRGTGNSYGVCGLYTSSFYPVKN
In words: Papain inhibitory activity (milk casein proteolysis). The format is biochemical. On the set-up: unit not given beside the values. The note with it: amount of inhibitor for 50% inhibition; pH 6.8, 40° C., casein substrate. The method, then: Papain inhibitory activity of the compounds of the present invention was assayed as follows: To 0.5 ml of a solution of papain (80 μg/ml, Sigma Chem. Co., 2x, cry.), were added 0.25 ml of 40 mM cysteine dissolved in 20 mM disodium ethylenediamine tetraacetic acid solution adjusted pH to 6.8 with sodium hydroxide and 0.25 ml of 33 mM phosphate buffer (pH 6.8) with or without inhibitor. After incubation for 15 minutes at 40° C., the resulting mixture was added to 5 ml of 1% milk casein solution in the same buffer as described above, and further incubated for 10 minutes at 40° C. Then the mixture was mixed with 5 ml of 0.44 M trichloroacetic acid solution and followed by filtration with a sheet of Toyo filter paper No. 4.
The extinction of the filtrate was read at 280 nm. The percent inhibition was calculated from the formula, 100×(B-A)/B; wherein B stands for the absorbance without inhibitor and A for the absorbance with inhibitor. The compound Nos. in Table 2 are as defined in Examples as described hereinafter.
In the case of `CCOC(=O)[C@@H]1O[C@H]1C(=O)N1CCOC(C)C1` (some centres unmarked) [Compound No. 33, ethyl N-1'-methyloxydiethylene-2,3-epoxysuccinamate], the ID50 is reported as 95.10 γ.

Consider `O=C(O)[C@@H]1O[C@H]1C(=O)NCc1ccccc1` (relative stereo) [Compound No. 96, potassium N-benzyl-2,3-epoxysuccinamate], for which the ID50 is on record as 0.158 γ.

Consider `CCOC(=O)C1OC1C(=O)N1CCCC1C(=O)OC` (centres unmarked) [Compound No. 87, ethyl N-1'-carbomethoxytetramethylene-2,3-epoxysuccinamate], for which the ID50 was 98.10 γ.

`CCCOC(=O)[C@H]1O[C@@H]1C(=O)NC1CCCC1` (relative stereo) [Compound No. 63, Propyl N-cyclopentyl-2,3-epoxysuccinamate]: the ID50 was 4.23 γ.

Regarding `CCOC(=O)C1OC1C(=O)N1CCCC1C(=O)OCc1ccccc1` (centres unmarked) [Compound No. 86, ethyl N-1'-carbobenzoxytetramethylene-2,3-epoxysuccinamate], the ID50 is recorded as 105.50 γ.

`CCOC(=O)[C@H]1O[C@@H]1C(=O)NCCCCNC(=O)OCc1ccccc1` (relative stereo) [Compound No. 68, ethyl N-carbobenzoxyaminobutyl-2,3-epoxysuccinamate]: the ID50 was 24.04 γ.

In the case of `CCNC(=O)[C@H]1O[C@@H]1C(=O)OC(C)C` (relative stereo) [Compound No. 65, Isopropyl N-ethyl-2,3-epoxysuccinamate], the ID50 was 13.65 γ.

On to `CCOC(=O)[C@H]1O[C@@H]1C(=O)N(CC(C)C)CC(C)C` (relative stereo) [Compound No. 56, ethyl N,N-diisobutyl-2,3-epoxysuccinamate], for which the ID50 was 148.80 γ.

`CC(C)CCNC(=O)[C@H]1O[C@@H]1C(=O)O` (relative stereo) [Compound No. 97, potassium N-isoamyl-2,3-epoxysuccinamate]: the ID50 is 0.266 γ.

For the compound `CCOC(=O)[C@@H]1O[C@H]1C(=O)N1CCCC1C` (relative stereo) [Compound No. 75, ethyl N-1'-methyltetramethylene-2,3-epoxysuccinamate], the ID50 is reported as 130.10 γ.

In the case of `O=C(O)[C@@H]1O[C@H]1C(=O)NCC1CCCC1` (relative stereo) [Compound No. 108, N-Cyclopentanemethyl-2,3-epoxysuccinamic acid], the ID50 is reported as 0.234 γ.

As to `CC(C)COC(=O)[C@H]1O[C@@H]1C(=O)NCc1ccco1` (relative stereo) [Compound No. 39, Isobutyl N-furfuryl-2,3-epoxysuccinamate], the ID50 is listed as 3.08 γ.

Consider `COC(=O)[C@H]1O[C@@H]1C(=O)Nc1ccccc1` (relative stereo) [Compound No. 50, methyl N-phenyl-2,3-epoxysuccinamate], for which the ID50 is recorded as 16.95 γ.

In the case of `O=C(OCc1ccccc1)[C@@H]1O[C@H]1C(=O)N1CCCCC1` (relative stereo) [Compound No. 78, Benzyl N-pentamethylene-2,3-epoxysuccinamate], the ID50 is reported as 34.23 γ.

As for `CCOC(=O)[C@@H]1O[C@H]1C(=O)NC1CCCC1` (relative stereo) [Compound No. 18, ethyl N-cyclopentyl-2,3-epoxysuccinamate], the ID50 is listed as 22.36 γ.

As to `CCOC(=O)[C@@H]1O[C@H]1C(=O)Nc1c(Cl)cccc1Cl` (relative stereo) [Compound No. 8, ethyl N-2',6'-dichlorophenyl-2,3-epoxysuccinamate], the ID50 was 208.33 γ.

For the compound `CCNC(=O)[C@H]1O[C@@H]1C(=O)OC` (relative stereo) [Compound No. 54, methyl N-ethyl-2,3-epoxysuccinamate], the ID50 was 10.07 γ.

`CCOC(=O)[C@@H]1O[C@H]1C(=O)Nc1cc(Cl)ccc1C(=O)O` (relative stereo) [Compound No. 82, ethyl N-2'-carboxy-5'-chlorophenyl-2,3-epoxysuccinamte]: the ID50 is 277.80 γ.

For the compound `CCOC(=O)[C@@H]1O[C@H]1C(=O)NCCc1ccccc1` (relative stereo) [Compound No. 15, ethyl N-phenethyl-2,3-epoxysuccinamate], the ID50 is reported as 26.04 γ.

For `C#CCOC(=O)[C@@H]1O[C@H]1C(=O)N1CCCCC1` (relative stereo) [Compound No. 74, propargyl N-pentamethylene-2,3-epoxysuccinamate], the ID50 is recorded as 39.62 γ.

For `CCOC(=O)[C@@H]1O[C@H]1C(=O)N(C)CC1CCCCC1` (relative stereo) [Compound No. 32, ethyl N-methyl-N-cyclohexanemethyl-2,3-epoxysuccinamate], the ID50 is reported as 71.40 γ.

As to `COc1ccccc1NC(=O)[C@H]1O[C@@H]1C(=O)OC(C)C` (relative stereo) [Compound No. 37, Isopropyl N-2'-methoxyphenyl-2,3-epoxysuccinamate], the ID50 is reported as 5.81 γ.

Regarding `C=CCOC(=O)[C@H]1O[C@@H]1C(=O)NCCc1ccccc1` (relative stereo) [Compound No. 71, Allyl N-phenethyl-2,3-epoxysuccinamate], the ID50 is 4.13 γ.

`O=C(Nc1ccccc1)[C@@H]1O[C@H]1C(=O)Oc1ccccc1` (relative stereo) [Compound No. 28, phenyl N-phenyl-2,3-epoxysuccinamate]: the ID50 is 6.41 γ.

In the case of `COC(=O)[C@H]1O[C@@H]1C(=O)N1CCOCC1` (relative stereo) [Compound No. 70, Methyl N-oxydiethylene-2,3-epoxysuccinamate], the ID50 is given as 90.25 γ.

On to `CCOC(=O)[C@@H]1O[C@H]1C(=O)Nc1c(Br)cc(Br)cc1Br` (relative stereo) [Compound No. 9, ethyl N-2',4',6'-tribromophenyl-2,3-epoxysuccinamate], for which the ID50 is 120.19 γ.

Turning to `CCCN(C(=O)[C@H]1O[C@@H]1C(=O)OCC)c1ccccc1` (relative stereo) [Compound No. 59, ethyl N-propyl-N-phenyl-2,3-epoxysuccinamate], the ID50 is reported as 154.50 γ.

As for `CCOC(=O)[C@@H]1O[C@H]1C(=O)N1CCN(C)CC1` (relative stereo) [Compound No. 23, ethyl N-N'-methylaminodiethylene-2,3-epoxysuccinamate], the ID50 is on record as 868.05 γ.

As for `CCCOC(=O)[C@H]1O[C@@H]1C(=O)NC(C)C` (relative stereo) [Compound No. 64, Propyl N-isopropyl-2,3-epoxysuccinamate], the ID50 is 8.32 γ.

Turning to `CC#CCOC(=O)[C@H]1O[C@@H]1C(=O)NCC` (relative stereo) [Compound No. 41, 2'-Butynyl N-ethyl-2,3-epoxysuccinamate], the ID50 was 15.23 γ.

Turning to `O=C(NC1CCCCC1)[C@H]1O[C@@H]1C(=O)OC1CCCCC1` (relative stereo) [Compound No. 44, Cyclohexyl N-cyclohexyl-2,3-epoxysuccinamate], the ID50 is listed as 3.14 γ.

On to `O=C(O)[C@@H]1O[C@H]1C(=O)N1CCCC1` (relative stereo) [Compound No. 103, Sodium N-tetramethylene-2,3-epoxysuccinamate], for which the ID50 was 13.42 γ.

On to `O=C(Nc1ccccc1)[C@H]1O[C@@H]1C(=O)OC1C=CCC1` (relative stereo) [Compound No. 46, 2'-Cyclopentenyl N-phenyl-2,3-epoxysuccinamate], for which the ID50 is reported as 2.98 γ.

Consider `CCOC(=O)[C@H]1O[C@@H]1C(=O)N(C)Cc1ccccc1` (relative stereo) [Compound No. 58, ethyl N-methyl-N-benzyl-2,3-epoxysuccinamate], for which the ID50 is reported as 231.50 γ.

Turning to `CCOC(=O)[C@@H]1O[C@H]1C(=O)N1CCCCC1C(=O)OCc1ccccc1` (relative stereo) [Compound No. 92, Ethyl N-1'-carbobenzoxypentamethylene-2,3-epoxysuccinamate], the ID50 is given as 120.10 γ.

For the compound `O=C(O)[C@@H]1O[C@H]1C(=O)Nc1ccccc1` (relative stereo) [Compound No. 104, Sodium N-phenyl-2,3-epoxysuccinamate], the ID50 is listed as 0.315 γ.

On to `CCOC(=O)[C@@H]1O[C@H]1C(=O)N1CCOCC1` (relative stereo) [Compound No. 21], for which the ID50 was 93.28 γ.

Turning to `CCOC(=O)[C@@H]1O[C@H]1C(=O)NCC1CC1` (relative stereo) [Compound No. 83, ethyl N-cyclopropanemethyl-2,3-epoxysuccinamate], the ID50 was 130.20 γ.
